Experimental findings from US20160200769A1, “Compound, Transitmycin, Effective Against Bacterial and Viral Pathogens” (INDIAN COUNCIL OF MEDICAL RESEARCH, priority 2013, published 2016) are described below.

*1 amine or outer side, *2 acyl side, *3 side chain or, on linkers, in order; H or OH if unused. Where a SMILES comes first, the peptide text is derived from it. Bridges are numbered along the chain shown (N, C = ends). Roman numbers before positions name the chains, in order. [ ]: non-standard residue; d: D form. Actinocin(1to9) = Cc1c2oc3c(C)ccc(C(=O)[*:2])c3nc-2c(C(=O)[*:1])c(N)c1=O; Pro(4-oxo) = O=C1CN[C@H](C(=O)O)C1; NMeV = CN[C@H](C(=O)O)C(C)C; Sar = CNCC(=O)O

For the experiment, the system named is M. tuberculosis SHRE resistant. The experiment can be described thus: microbe, parasite or virus in culture. Conditions: Mycobacterium tuberculosis. In kind it is cell-based.

With `Cc1c2oc3c(C)ccc(C(=O)N[C@@H]4C(=O)N[C@@H](C(C)C)C(=O)N5CCC[C@H]5C(=O)N(C)CC(=O)N(C)[C@@H](C(C)C)C(=O)O[C@@H]4C)c3nc-2c(C(=O)N[C@@H]2C(=O)N[C@@H](C(C)C)C(=O)N3CC(=O)C[C@H]3C(=O)N(C)CC(=O)N(C)[C@@H](C(C)C)C(=O)O[C@@H]2C)c(N)c1=O` [compound of formula (I), Transitmycin] (I: TV[Pro(4-oxo)][Sar][NMeV] / II: TVP[Sar][NMeV]; ester I:1-I:C, II:1-II:C; linker I:N-II:N via Actinocin(1to9)), the MIC was determined as 6.25 µg/mL.
